Data taken from PubChem BioAssay AID2060891 (Molecular Pharmacology Branch, DTP, NCI, 2025).

System: K98450-129-R-PDC complex spheroid growth, percent test/control
Assay: Anticancer human tumor K98450-129-R-PDC patient-derived colon adenocarcinoma cell line growth inhibition [RAS]
Settings: for IC50: curve of first compound; for viability, T/C: stronger effect = lower value
In short: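 Multi-cell-type spheroids: tumor cells plus HUVEC endothelial cells and mesenchymal stem cells. RAS-pathway inhibitors were combined with targeted agents, each dosed in half-log steps down from clinical Cmax, or from 10 microM when Cmax was unknown.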

[1] = second compound 0.00316 µM, first compound 0.0316 µM
[2] = second compound 0.00316 µM, first compound 0.1 µM
[3] = second compound 0.00316 µM, first compound 0.316 µM
[4] = second compound 0.00316 µM, first compound 1 µM
[5] = second compound 0.00316 µM, first compound 3.16 µM
[6] = second compound 0.00316 µM, first compound 10 µM
[7] = second compound 0.01 µM, first compound 0.0316 µM
[8] = second compound 0.01 µM, first compound 0.1 µM
[9] = second compound 0.01 µM, first compound 0.316 µM
[10] = second compound 0.01 µM, first compound 1 µM
[11] = second compound 0.01 µM, first compound 3.16 µM
[12] = second compound 0.01 µM, first compound 10 µM
[13] = second compound 0.0316 µM, first compound 0.0316 µM
[14] = second compound 0.0316 µM, first compound 0.1 µM
[15] = second compound 0.0316 µM, first compound 0.316 µM
[16] = second compound 0.0316 µM, first compound 1 µM
[17] = second compound 0.0316 µM, first compound 3.16 µM
[18] = second compound 0.0316 µM, first compound 10 µM
[19] = second compound 0.1 µM, first compound 0.0316 µM
[20] = second compound 0.1 µM, first compound 0.1 µM
[21] = second compound 0.1 µM, first compound 0.316 µM
[22] = second compound 0.1 µM, first compound 1 µM
[23] = second compound 0.1 µM, first compound 3.16 µM
[24] = second compound 0.1 µM, first compound 10 µM
[25] = second compound 0.316 µM, first compound 0.0316 µM
[26] = second compound 0.316 µM, first compound 0.1 µM
[27] = second compound 0.316 µM, first compound 0.316 µM
[28] = second compound 0.316 µM, first compound 1 µM
[29] = second compound 0.316 µM, first compound 3.16 µM
[30] = second compound 0.316 µM, first compound 10 µM
[31] = second compound 1 µM, first compound 0.0316 µM
[32] = second compound 1 µM, first compound 0.1 µM
[33] = second compound 1 µM, first compound 0.316 µM
[34] = second compound 1 µM, first compound 1 µM
[35] = second compound 1 µM, first compound 3.16 µM
[36] = second compound 1 µM, first compound 10 µM
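Note: spheroids exposed to agents for seven days before the viability readout.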
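Throughout, for viability, T/C: luminescence used as a proxy for viable cell amount.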

For CCC(CC)c1cc(NC2CCC(N)C2)n2nccc2n1 (stereo unspecified) + C=CC(=O)N1CCN(c2nc(OCC3CCCN3C)nc3c(F)c(-c4nc(N)cc(C)c4C(F)(F)F)c(Cl)cc23)C(C)C1, the IC50 (second compound 0.00316 µM) was 5.16 µM, the IC50 (second compound 0.01 µM) was 4.56 µM and the IC50 (second compound 0.0316 µM) was 2.77 µM. For the same compound, the IC50 (second compound 0.1 µM) was 1.17 µM, the IC50 (second compound 0.316 µM) was less than 0.0316 µM and the IC50 (second compound 1 µM) was less than 0.0316 µM. It also gave a viability, T/C [1] of 97.6%, a viability, T/C [2] of 93.8% and a viability, T/C [3] of 91.5%. For the same compound, the viability, T/C [4] was 87.3%, the viability, T/C [5] was 78.2% and the viability, T/C [6] was 13.5%. For the same compound, the viability, T/C [7] was 88.2%, the viability, T/C [8] was 86.8% and the viability, T/C [9] was 84.6%. It also gave a viability, T/C [10] of 85.8%, a viability, T/C [11] of 66.2% and a viability, T/C [12] of 15.1%. For the same compound, the viability, T/C [13] was 78.6%, the viability, T/C [14] was 73.3% and the viability, T/C [15] was 73.1%. For the same compound, the viability, T/C [16] was 60.4%, the viability, T/C [17] was 51.3% and the viability, T/C [18] was 8.93%. The viability, T/C [19] was 48.2%, the viability, T/C [20] was 55.4% and the viability, T/C [21] was 51.9%. The viability, T/C [22] was 54.3%, the viability, T/C [23] was 34.1% and the viability, T/C [24] was 8.77%. It also gave a viability, T/C [25] of 38.4%, a viability, T/C [26] of 38.9% and a viability, T/C [27] of 41%. The viability, T/C [28] was 37.3%, the viability, T/C [29] was 16.4% and the viability, T/C [30] was 7.47%. It also gave a viability, T/C [31] of 32%, a viability, T/C [32] of 31.9% and a viability, T/C [33] of 33.3%. It also gave a viability, T/C [34] of 25.3%, a viability, T/C [35] of 11.1% and a viability, T/C [36] of 8.2%.

CCN1CCN(Cc2ccc(Nc3ncc(F)c(-c4cc(F)c5nc(C)n(C(C)C)c5c4)n3)nc2)CC1 + C=CC(=O)N1CCN(c2nc(OCC3CCCN3C)nc3c(F)c(-c4nc(N)cc(C)c4C(F)(F)F)c(Cl)cc23)C(C)C1 showed an IC50 (second compound 0.00316 µM) of 0.512 µM, an IC50 (second compound 0.01 µM) of 0.177 µM and an IC50 (second compound 0.0316 µM) of 0.0657 µM. For the same compound, the IC50 (second compound 0.1 µM) was 0.0206 µM, the IC50 (second compound 0.316 µM) was less than 0.00316 µM and the IC50 (second compound 1 µM) was less than 0.00316 µM. The viability, T/C (second compound 0.00316 µM, first compound 0.00316 µM) was 95%, the viability, T/C (second compound 0.00316 µM, first compound 0.01 µM) was 97.3% and the viability, T/C [1] was 81.8%. It also gave a viability, T/C [2] of 75.2%, a viability, T/C [3] of 48.7% and a viability, T/C [4] of 47.8%. The viability, T/C (second compound 0.01 µM, first compound 0.00316 µM) was 90.8%, the viability, T/C (second compound 0.01 µM, first compound 0.01 µM) was 86.8% and the viability, T/C [7] was 73.7%. For the same compound, the viability, T/C [8] was 57.8%, the viability, T/C [9] was 42.3% and the viability, T/C [10] was 36.2%. For the same compound, the viability, T/C (second compound 0.0316 µM, first compound 0.00316 µM) was 73.3%, the viability, T/C (second compound 0.0316 µM, first compound 0.01 µM) was 68.3% and the viability, T/C [13] was 62.5%. It also gave a viability, T/C [14] of 43.2%, a viability, T/C [15] of 32.4% and a viability, T/C [16] of 31.9%. For the same compound, the viability, T/C (second compound 0.1 µM, first compound 0.00316 µM) was 60.2%, the viability, T/C (second compound 0.1 µM, first compound 0.01 µM) was 55.1% and the viability, T/C [19] was 46.6%. The viability, T/C [20] was 36.6%, the viability, T/C [21] was 27% and the viability, T/C [22] was 29.2%. It also gave a viability, T/C (second compound 0.316 µM, first compound 0.00316 µM) of 44.4%, a viability, T/C (second compound 0.316 µM, first compound 0.01 µM) of 41.2% and a viability, T/C [25] of 33.1%. The viability, T/C [26] was 27.9%, the viability, T/C [27] was 24.2% and the viability, T/C [28] was 28.4%. The viability, T/C (second compound 1 µM, first compound 0.00316 µM) was 31.8%, the viability, T/C (second compound 1 µM, first compound 0.01 µM) was 32.1% and the viability, T/C [31] was 28.7%. It also gave a viability, T/C [32] of 24.3%, a viability, T/C [33] of 24.6% and a viability, T/C [34] of 29.2%.

For C[C@@H](NC(=O)c1ncnc(N)c1Cl)c1ncc(C(=O)Nc2cc(C(F)(F)F)c(Cl)cn2)s1 + C=CC(=O)N1CCN(c2nc(OCC3CCCN3C)nc3c(F)c(-c4nc(N)cc(C)c4C(F)(F)F)c(Cl)cc23)C(C)C1, the IC50 (second compound 0.00316 µM) was greater than 10 µM, the IC50 (second compound 0.01 µM) was greater than 10 µM and the IC50 (second compound 0.0316 µM) was greater than 10 µM. The IC50 (second compound 0.1 µM) was greater than 10 µM, the IC50 (second compound 0.316 µM) was less than 0.0316 µM and the IC50 (second compound 1 µM) was less than 0.0316 µM. For the same compound, the viability, T/C [1] was 101%, the viability, T/C [2] was 98.6% and the viability, T/C [3] was 102%. For the same compound, the viability, T/C [4] was 108%, the viability, T/C [5] was 115% and the viability, T/C [6] was 94%. The viability, T/C [7] was 91.2%, the viability, T/C [8] was 92.5% and the viability, T/C [9] was 89.5%. It also gave a viability, T/C [10] of 97.4%, a viability, T/C [11] of 94.3% and a viability, T/C [12] of 80.1%. For the same compound, the viability, T/C [13] was 76.3%, the viability, T/C [14] was 80.2% and the viability, T/C [15] was 76.3%. It also gave a viability, T/C [16] of 77.2%, a viability, T/C [17] of 80% and a viability, T/C [18] of 65.1%. For the same compound, the viability, T/C [19] was 63.8%, the viability, T/C [20] was 66.6% and the viability, T/C [21] was 59.2%. For the same compound, the viability, T/C [22] was 64.8%, the viability, T/C [23] was 69.9% and the viability, T/C [24] was 56.3%. For the same compound, the viability, T/C [25] was 44.2%, the viability, T/C [26] was 50.4% and the viability, T/C [27] was 52.1%. The viability, T/C [28] was 49.9%, the viability, T/C [29] was 57% and the viability, T/C [30] was 46.1%. It also gave a viability, T/C [31] of 37.1%, a viability, T/C [32] of 41.3% and a viability, T/C [33] of 44.6%. The viability, T/C [34] was 44.6%, the viability, T/C [35] was 49.7% and the viability, T/C [36] was 43.5%.
